This note sets out measurements from patent publication US6656952B2, “Cis-substituted fluoromethylpyrrolidine derivative” (Daiichi Pharmaceutical Co., Ltd., priority 1997, dated 2003).

Structures are written as SMILES. In brackets after ≈: the same amount, converted by molar mass. Bounds are passed on as bounds.

In one series the test system is E. coli, NIHJ. Description: Antibacterial activity (MIC), standard method of the Japan Society of Chemotherapy. The series is classed as cell-based. To be noted: Escherichia coli, read-out: Antibacterial activity (minimum inhibitory concentration). As for the experimental part: (§1) Examples of the present invention are given below by way of illustration and not by way of limitation. The antibacterial activity of each compound of interest was measured in accordance with the standard method specified by the Japan Society of Chemotherapy, with the results shown in Table 1 as MIC values (μg/ml).

The subject of the next series is S. aureus, 870307. Described as above. The series is classed as cell-based. As to conditions: Staphylococcus aureus, read-out: Antibacterial activity (minimum inhibitory concentration). As for the experimental part: as §1
Series [1] concerns Str. faecalis, ATCC-19433. The series is described as above. The class given is cell-based. As to conditions: Enterococcus faecalis, ATCC19433, read-out: Antibacterial activity (minimum inhibitory concentration). The protocol: as §1
A further series deals with S. aureus, 209P. The description is as above. The class given is cell-based. To be noted: Staphylococcus aureus, read-out: Antibacterial activity (minimum inhibitory concentration). As for the experimental part:
as §1

A further series concerns Str. pyogenes, G-36. The description is as above. The class given is cell-based. To be noted: Streptococcus pyogenes, G36, read-out: Antibacterial activity (minimum inhibitory concentration). As for the experimental part:
as §1

The subject of another series is Ser. marcescens, 10100. Described as above. The class given is cell-based. As to conditions: Serratia marcescens, read-out: Antibacterial activity (minimum inhibitory concentration). The protocol:
as §1

For the next series, the system named is Ps. aeruginosa, 32104. The description is as above. The series is classed as cell-based. To be noted: Pseudomonas aeruginosa, read-out: Antibacterial activity (minimum inhibitory concentration). As for the experimental part: as §1
In a further series the test system is S. epidermidis, 56500. The series is described as above. The series is classed as cell-based. To be noted: Staphylococcus epidermidis, read-out: Antibacterial activity (minimum inhibitory concentration). The protocol:
as §1

The test system of another series is Pr. mirabilis, IFO- 3849. Described as above. The class given is cell-based. As to conditions: Proteus mirabilis, IFO3849, read-out: Antibacterial activity (minimum inhibitory concentration). The protocol: as §1
The subject of the next series is Ps. aeruginosa, 32121. The description is as above. The class given is cell-based. To be noted: Pseudomonas aeruginosa, read-out: Antibacterial activity (minimum inhibitory concentration). The protocol: as §1
The next series deals with X. maltophilia, IID 1275. Described as above. The class given is cell-based. As to conditions: Stenotrophomonas maltophilia, IID1275, read-out: Antibacterial activity (minimum inhibitory concentration). As for the experimental part:
as §1

The test system of a further series is S. flexneli, 2A 5503. The series is described as above. As to conditions: read-out: Antibacterial activity (minimum inhibitory concentration). The class given is cell-based. As for the experimental part:
as §1

The test system of a further series is Pr. vulgaris, 08601. The description is as above. The series is classed as cell-based. As to conditions: Proteus vulgaris, read-out: Antibacterial activity (minimum inhibitory concentration). As for the experimental part: as §1
For a further series, the system named is mouse peripheral blood. Description: Mouse peripheral blood micronucleus test. The class given is in vivo.

`COc1c(N2C[C@@H](CF)[C@@H](N)C2)c(F)cc2c(=O)c(C(=O)O)cn(C3CC3)c12` [Comp. Ex. 1, 7-[3-(R)-Amino-4-(R)-fluoromethyl-1-pyrrolidinyl]-1-cyclopropyl-6-fluoro-1,4-dihydro-8-methoxy-4-oxoquinoline-3-carboxylic acid, reference compound]: the MIC in the series on E. coli, NIHJ is no more than 0.003 µg/mL; in the series with S. aureus, 870307 it was 0.78 µg/mL (≈ 1.98 µM); in series [1] it was 0.2 µg/mL (≈ 0.508 µM); in the series with S. aureus, 209P, 0.025 µg/mL (≈ 0.0636 µM); in the series on Str. pyogenes, G-36, 0.2 µg/mL (≈ 0.508 µM); in the series with Ser. marcescens, 10100, 0.1 µg/mL (≈ 0.254 µM). Moreover, the MIC with Ps. aeruginosa, 32104 was 0.2 µg/mL (≈ 0.508 µM); in the series with S. epidermidis, 56500, 0.1 µg/mL (≈ 0.254 µM); with Pr. mirabilis, IFO- 3849, 0.1 µg/mL (≈ 0.254 µM); in the series on Ps. aeruginosa, 32121, 0.1 µg/mL (≈ 0.254 µM); with X. maltophilia, IID 1275, 0.2 µg/mL (≈ 0.508 µM); in the series with S. flexneli, 2A 5503, 0.013 µg/mL (≈ 0.033 µM). The MIC in the series with Pr. vulgaris, 08601 was determined as 0.013 µg/mL (≈ 0.033 µM).
In the case of `COc1c(N2C[C@H](CF)[C@H](N)C2)c(F)cc2c(=O)c(C(=O)O)cn([C@@H]3C[C@@H]3F)c12` [Ex. 1, 7-[3-(S)-Amino-4-(S)-fluoromethyl-1-pyrrolidinyl]-6-fluoro-1-[2-(S)-fluoro-1-(R)-cyclopropyl]-1,4-dihydro-8-methoxy-4-oxoquinoline-3-carboxylic acid], the MIC in the series on E. coli, NIHJ is no more than 0.003 µg/mL; in the series on S. aureus, 870307 it was 0.2 µg/mL (≈ 0.486 µM); in [1] it was 0.1 µg/mL (≈ 0.243 µM); with S. aureus, 209P it was 0.013 µg/mL (≈ 0.0316 µM); in the series with Str. pyogenes, G-36, 0.1 µg/mL (≈ 0.243 µM); in the series on Ser. marcescens, 10100, 0.05 µg/mL (≈ 0.122 µM). The MIC was 0.2 µg/mL (≈ 0.486 µM) with Ps. aeruginosa, 32104; 0.05 µg/mL (≈ 0.122 µM) in the series with S. epidermidis, 56500; 0.025 µg/mL (≈ 0.0608 µM) with Pr. mirabilis, IFO- 3849; 0.05 µg/mL (≈ 0.122 µM) in the series with Ps. aeruginosa, 32121; 0.2 µg/mL (≈ 0.486 µM) in the series with X. maltophilia, IID 1275; 0.006 µg/mL (≈ 0.0146 µM) in the series on S. flexneli, 2A 5503. For the same compound, the MIC in the series with Pr. vulgaris, 08601 was 0.013 µg/mL (≈ 0.0316 µM).
For `COc1c(N2C[C@H](CF)[C@H](N)C2)c(F)cc2c(=O)c(C(=O)O)cn(C3CC3)c12` [Ex. 2, 7-[3-(S)-Amino-4-(S)-fluoromethyl-1-pyrrolidinyl]-1-cyclopropyl-6-fluoro-1,4-dihydro-8-methoxy-4-oxoquinoline-3-carboxylic acid], the MIC in the series on E. coli, NIHJ was no more than 0.003 µg/mL; with S. aureus, 870307, 0.39 µg/mL (≈ 0.991 µM); in series [1], 0.1 µg/mL (≈ 0.254 µM); in the series with S. aureus, 209P it was 0.013 µg/mL (≈ 0.033 µM); in the series with Str. pyogenes, G-36, 0.1 µg/mL (≈ 0.254 µM); with Ser. marcescens, 10100, 0.05 µg/mL (≈ 0.127 µM). For the same compound, the MIC in the series with Ps. aeruginosa, 32104 was 0.2 µg/mL (≈ 0.508 µM); in the series on S. epidermidis, 56500, 0.05 µg/mL (≈ 0.127 µM); with Pr. mirabilis, IFO- 3849 it was 0.05 µg/mL (≈ 0.127 µM); in the series with Ps. aeruginosa, 32121, 0.1 µg/mL (≈ 0.254 µM); with X. maltophilia, IID 1275, 0.1 µg/mL (≈ 0.254 µM); with S. flexneli, 2A 5503 it was 0.006 µg/mL (≈ 0.0153 µM). Further, the MIC in the series on Pr. vulgaris, 08601 worked out at 0.013 µg/mL (≈ 0.033 µM).
With `COc1c(N2C[C@@H](N)[C@@H](C)C2)c(F)cc2c(=O)c(C(=O)O)cn(C3CC3)c12` [formula (VI)], in the series with mouse peripheral blood, the “micronucleus test (micronucleus inducing action)” value is listed as “positive”.
